Calls of active or inactive are those of the source. The calls are words filed in the database; no cut-off is given here.
What was measured:
DBTRG-05MG [1] = experiment: Induction of cell cycle arrest in human DBTRG-05MG cells assessed as CyclinA expression at 206 uM after 48 hrs by Western blot analysis (reference value: 1); format: functional
[2] = molecular target: Serine/threonine-protein kinase AKT (Homo sapiens) (UniProt P31751+Q9Y243+P31749); experiment: Inhibition of AKT phosphorylation at S473 residues in human DBTRG-05MG cells at 206 uM after 48 hrs by Western blot analysis; format: cell-based
Sequence of Serine/threonine-protein kinase AKT (Homo sapiens) (P31749 whole entry, looked up): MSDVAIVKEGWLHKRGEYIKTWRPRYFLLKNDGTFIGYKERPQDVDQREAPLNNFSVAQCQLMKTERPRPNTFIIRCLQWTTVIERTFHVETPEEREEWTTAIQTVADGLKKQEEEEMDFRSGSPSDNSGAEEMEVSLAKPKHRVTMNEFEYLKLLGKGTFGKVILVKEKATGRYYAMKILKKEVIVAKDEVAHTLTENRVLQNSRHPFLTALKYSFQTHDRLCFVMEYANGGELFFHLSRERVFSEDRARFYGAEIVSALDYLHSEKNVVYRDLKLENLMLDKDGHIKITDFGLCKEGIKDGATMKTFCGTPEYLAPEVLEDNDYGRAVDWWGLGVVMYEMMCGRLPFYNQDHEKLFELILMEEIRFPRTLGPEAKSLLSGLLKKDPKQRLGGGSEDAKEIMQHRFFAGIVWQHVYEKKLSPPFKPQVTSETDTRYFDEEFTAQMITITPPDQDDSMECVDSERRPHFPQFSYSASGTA
Sequence of Serine/threonine-protein kinase AKT (Homo sapiens) (P31751 whole entry, looked up): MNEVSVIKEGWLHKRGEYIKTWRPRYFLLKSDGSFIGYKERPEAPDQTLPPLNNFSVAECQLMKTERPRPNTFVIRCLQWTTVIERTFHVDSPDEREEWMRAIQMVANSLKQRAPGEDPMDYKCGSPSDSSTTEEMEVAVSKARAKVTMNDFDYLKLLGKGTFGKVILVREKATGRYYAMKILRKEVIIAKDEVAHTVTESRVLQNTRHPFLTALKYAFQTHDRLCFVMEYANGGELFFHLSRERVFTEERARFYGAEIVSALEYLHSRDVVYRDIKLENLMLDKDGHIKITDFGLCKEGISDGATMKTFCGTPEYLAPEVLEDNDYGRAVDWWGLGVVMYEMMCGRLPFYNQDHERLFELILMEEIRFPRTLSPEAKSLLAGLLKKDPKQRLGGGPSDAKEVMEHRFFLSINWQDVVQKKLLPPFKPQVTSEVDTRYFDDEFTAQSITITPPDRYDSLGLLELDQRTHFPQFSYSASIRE
Sequence of Serine/threonine-protein kinase AKT (Homo sapiens) (Q9Y243 whole entry, looked up): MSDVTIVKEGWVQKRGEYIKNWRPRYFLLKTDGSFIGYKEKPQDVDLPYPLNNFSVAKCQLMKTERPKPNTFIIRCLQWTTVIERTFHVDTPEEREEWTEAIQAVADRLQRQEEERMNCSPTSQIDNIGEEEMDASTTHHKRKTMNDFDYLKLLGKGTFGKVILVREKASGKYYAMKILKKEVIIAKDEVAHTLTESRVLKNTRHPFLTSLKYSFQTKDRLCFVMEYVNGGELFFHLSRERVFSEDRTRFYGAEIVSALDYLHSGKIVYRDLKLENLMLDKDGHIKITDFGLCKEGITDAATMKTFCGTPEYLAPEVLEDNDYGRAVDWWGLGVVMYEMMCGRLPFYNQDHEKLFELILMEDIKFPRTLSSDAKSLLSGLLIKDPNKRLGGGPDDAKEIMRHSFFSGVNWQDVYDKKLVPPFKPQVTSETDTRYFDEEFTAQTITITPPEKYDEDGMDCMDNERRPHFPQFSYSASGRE

RG2 [3] = experiment: Induction of DNA damage in rat RG2 cells assessed as H2A.X phosphorylation at ser139 at 206 uM after 48 hrs by Western blot analysis (reference value: 1); format: functional
RG2 [4] = experiment: Induction of apoptosis in rat RG2 cells assessed as increase in chromatin condensation at 206 uM after 48 hrs by TUNEL assay; format: functional, cell-based
DBTRG-05MG [5] = experiment: Induction of cell cycle arrest in human DBTRG-05MG cells assessed as accumulation at G0/G1 phase at 206 uM after 12 hrs by propidium iodide staining based flow cytometric analysis (reference value: 47.16 +/- 1.55%); format: functional
RG2 [6] = experiment: Inhibition of ERK phosphorylation at Tyr204 residues in rat RG2 cells at 112.4uM after 48 hrs by Western blot analysis (reference value: 1); format: cell-based
[7] = Effect of MGMT expression in rat RG2 cells at 112.4 uM after 48 hrs by Western blot analysis (reference value: 1); format: functional
[8] = Effect on p38 expression in rat RG2 cells at 112.4uM after 48 hrs in presence of TMZ by Western blot analysis (reference value: 1); format: functional
DBTRG-05MG [9] = experiment: Induction of cell cycle arrest in human DBTRG-05MG cells assessed as CyclinD1 expression at 112.4 uM after 48 hrs in presence of TMZ by Western blot analysis (reference value: 1); format: functional
DBTRG-05MG [10] = experiment: Synergistic cytotoxicity against human DBTRG-05MG cells assessed as synergistic effect index at 112.4 uM after 48 hrs in presence of 206 uM TMZ by MTT assay; format: functional
[11] = Synergistic cytotoxicity against rat CTX TNA2 cells assessed as synergistic effect index at 89.9 uM after 48 hrs in presence of 103 uM TMZ by MTT assay; format: cell-based; conditions: ctx tna2, 48 h
[12] = Synergistic cytotoxicity against rat CTX TNA2 cells assessed as combination index at 134.9 uM after 48 hrs in presence of 206 uM TMZ by MTT assay; format: cell-based; conditions: ctx tna2, 48 h
DBTRG-05MG [13] = experiment: Synergistic cytotoxicity against human DBTRG-05MG cells assessed as combination index at 112.4 uM after 48 hrs in presence of 103 uM TMZ by MTT assay; format: functional
[14] = Effect of CD133 expression in human DBTRG-05MG cells at 112.4 uM after 48 hrs by Western blot analysis; format: functional
RG2 [15] = experiment: Induction of apoptosis in rat RG2 cells assessed as increase in chromatin condensation at 112.4 uM after 48 hrs in presence of TMZ by TUNEL assay; format: functional, cell-based
DBTRG-05MG [16] = experiment: Induction of apoptosis in human DBTRG-05MG cells assessed as Bcl2 expression at 112.4 uM after 48 hrs in presence of TMZ by Western blot analysis (reference value: 1); format: functional
RG2 [17] = experiment: Inhibition of JNK phosphorylation at Thr183/Tyr185 residues in rat RG2 cells at 112.4uM after 48 hrs by Western blot analysis (reference value: 1); format: cell-based
RG2 [18] = experiment: Induction of apoptosis in rat RG2 cells assessed as phosphorylated caspace-9 expression at 112.4 uM after 48 hrs in presence of TMZ by Western blot analysis (reference value: 1); format: functional
RG2 [19] = experiment: Induction of DNA damage in rat RG2 cells assessed as Chk2 phosphorylation at Thr68 at 112.4 uM after 48 hrs in presence of TMZ by Western blot analysis (reference value: 1); format: functional
RG2 [20] = experiment: Induction of apoptosis in rat RG2 cells assessed as cleaved PARP expression at 112.4 uM after 48 hrs by Western blot analysis (reference value: 1); format: functional
DBTRG-05MG [21] = experiment: Induction of cell cycle arrest in human DBTRG-05MG cells assessed as accumulation at G0/G1 phase at 112.4 uM after 24 hrs in presence of TMZ by propidium iodide staining based flow cytometric analysis (reference value: 47.16 +/- 1.55%); format: functional
RG2 [22] = experiment: Induction of apoptosis in rat RG2 cells assessed as phosphorylated caspace-3 expression at 112.4 uM after 48 hrs by Western blot analysis (reference value: 1); format: functional
DBTRG-05MG [23] = experiment: Antitumour activity against human DBTRG-05MG cells xenografted in BALB/c nude mouse assessed as increase in survival time at 75 mg/kg, sc for every 2 days for 20 days and measured every 2 days; format: functional, organism-based; conditions: time 20.0 day
[24] = Synergistic cytotoxicity against rat CTX TNA2 cells assessed as combination index at 134.9 uM after 48 hrs in presence of 103 uM TMZ by MTT assay; format: cell-based; conditions: ctx tna2, 48 h
[25] = Effect on JNK expression in rat RG2 cells at 112.4uM after 48 hrs in presence of TMZ by Western blot analysis (reference value: 1); format: functional
DBTRG-05MG [26] = experiment: Induction of apoptosis in human DBTRG-05MG cells assessed as phosphorylated caspace-3 expression at 112.4 uM after 48 hrs in presence of TMZ by Western blot analysis (reference value: 1); format: functional
[27] = Effect on JNK expression in human DBTRG-05MG cells at 112.4uM after 48 hrs in presence of TMZ by Western blot analysis (reference value: 1); format: functional
RG2 [28] = experiment: Induction of apoptosis in rat RG2 cells assessed as phosphorylated caspace-9 expression at 112.4 uM after 48 hrs by Western blot analysis (reference value: 1); format: functional
DBTRG-05MG [29] = experiment: Synergistic cytotoxicity against human DBTRG-05MG cells assessed as synergistic effect index at 112.4 uM after 48 hrs in presence of 309 uM TMZ by MTT assay; format: functional
DBTRG-05MG [30] = experiment: Induction of cell cycle arrest in human DBTRG-05MG cells assessed as accumulation at S phase at 112.4 uM after 24 hrs in presence of TMZ by propidium iodide staining based flow cytometric analysis (reference value: 22.76 +/- 1.56%); format: functional
DBTRG-05MG [31] = experiment: Induction of apoptosis in human DBTRG-05MG cells assessed as cleaved caspace-3 expression at 112.4 uM after 48 hrs in presence of TMZ by Western blot analysis (reference value: 1); format: functional
DBTRG-05MG [32] = experiment: Synergistic cytotoxicity against human DBTRG-05MG cells assessed as synergistic effect index at 134.9 uM after 48 hrs in presence of 206 uM TMZ by MTT assay; format: functional
DBTRG-05MG [33] = experiment: Induction of apoptosis in human DBTRG-05MG cells assessed as phosphorylated caspace-9 expression at 112.4 uM after 48 hrs by Western blot analysis (reference value: 1); format: functional
RG2 [34] = experiment: Induction of apoptosis in rat RG2 cells assessed as increase in chromatin condensation at 112.4 uM after 48 hrs by TUNEL assay; format: functional, cell-based

With `Cn1nnc2c(C(N)=O)ncn2c1=O` [TEMOZOLOMIDE] the “fold change (FC)” value (DBTRG-05MG [1]) was 1.9, the fold change (FC) [2] was 0.7 and the “fold change (FC)” value (RG2 [3]) was 1.1. For the same molecule, the Activity (RG2 [4]) was “Active” and the Activity (DBTRG-05MG [5]) was 42.28%.
With `C[C@@H]1CC[C@H]2C(C)(C)[C@H]3C[C@@]12CC[C@@]3(C)O` [CEDROL] the fold change (FC) (RG2 [6]) was 0.9, the “fold change (FC)” value [7] was 0.7 and the “fold change (FC)” value [8] was 0.5. The “fold change (FC)” value (DBTRG-05MG [9]) was 0.4, the Activity_index (DBTRG-05MG [10]) was 0.88 and the Activity_index [11] was 0.24. For the same molecule, the CI [12] was 1.13, the CI (DBTRG-05MG [13]) was 0.56 and the “fold change (FC)” value [14] was 1.5. The Activity (RG2 [15]) was “Active”, the “fold change (FC)” value (DBTRG-05MG [16]) was 0.9 and the fold change (FC) (RG2 [17]) was 0.7. The “fold change (FC)” value (RG2 [18]) was 0.4, the “fold change (FC)” value (RG2 [19]) was 1.6 and the “fold change (FC)” value (RG2 [20]) was 1.4. The Activity (DBTRG-05MG [21]) was 48.93%, the “fold change (FC)” value (RG2 [22]) was 1.1 and the Activity (DBTRG-05MG [23]) was “Active”. The CI [24] was 1.23, the “fold change (FC)” value [25] was 0.5 and the “fold change (FC)” value (DBTRG-05MG [26]) was 1.2. The “fold change (FC)” value [27] was 0.4, the “fold change (FC)” value (RG2 [28]) was 0.6 and the Activity_index (DBTRG-05MG [29]) was 0.87. The Activity (DBTRG-05MG [30]) was 14.17%, the “fold change (FC)” value (DBTRG-05MG [31]) was 4.4 and the Activity_index (DBTRG-05MG [32]) was 0.88. The “fold change (FC)” value (DBTRG-05MG [33]) was 0.8 and the Activity (RG2 [34]) was “Active”.

From ChEMBL document CHEMBL4699511, “Cedrol, a Sesquiterpene Alcohol, Enhances the Anticancer Efficacy of Temozolomide in Attenuating Drug Resistance via Regulation of the DNA Damage Response and MGMT Expression” (J Nat Prod, 2020)
